Assay results reported in patent US20020143059A1, “Skin care product containing retinoids, retinoid booster and phytoestrogens in a dual compartment package” (priority 2000, published 2002).
Values belong to the molecule of their own block, whether it stands above or below them.

How the values were obtained:
CRABPII = molecular target: T1, CRABPII (Homo sapiens, UniProt P29373); test: CRABPII antagonist radioactive binding assay; conditions: competition with radioactive all trans retinoic acid, ligand in excess
T1 construct: made in house; host or cells: E. coli BLR(DE3)pLysS
T1 sequence (P29373 1-138): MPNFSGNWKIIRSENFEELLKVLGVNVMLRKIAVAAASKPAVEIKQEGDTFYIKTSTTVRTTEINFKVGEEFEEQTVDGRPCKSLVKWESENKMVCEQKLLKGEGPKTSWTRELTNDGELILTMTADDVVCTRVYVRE
Description: 2.6 Assay for CRABPII antagonists (To identify B4)
2.6.1 Synthesis of CRABPII
The gene CRABPII was cloned in pET 29a-c(+) plasmid (Novagen). The cloned gene was under control of strong bacteriophage T7 transcription and translation signals. The source of T7 polymerase was provided by the host cell E.coli BLR(DE3)pLysS (Novagen). The latter has a chromosomal copy of T7 polymerase under lacUV5 control, induced by the presence of IPTG. The plasmid was transferred into E. coli BLR(DE3)pLysS cells by transformation according to the manufacturer protocol (Novagen).
An overnight culture of the transformed cells was diluted 1:100 into 2xYT containing 50 μg/mL kanamycin and 25 μg/mL chloramphenicol. The cells grew while shaking at 37° C. until the OD at 600 nm reached 0.6-0.8. Then IPTG was added to a final concentration of 1 mM and the culture was incubated for an additional two hours. The cells were harvested by centrifugation at 5000 g for 10 minutes at room temperature. The pellet was stored at −20° C. […]
The supernatant from step a. was loaded onto a 2.5×100 cm column of sephacryl S-300 (Pharmacia) at room temperature. […] Collected 2-mL fractions were checked for ultraviolet absorbance at 280 nm. […]
For the competitive assay, another ligand in excess (6670:1, 670:1 or 70:1) was added to the mix. […] The radioactivity of the filtrate was measured by scintillation counter.

Retinal Reductase = test: Assay for Retinal Reductase Activity, liver microsomes; assay type: biochemical, rat; conditions: test compound final 100 μM (method)
CRABP-II = CRABP-II expression in adult fibroblasts (dot blot); assay type: cell-based, human; conditions: for CRABP-II production / % as Control: 1 μM phytoestrogen alone; for % as Control: control as 100%
[1] = Retinol stability in the presence of phytoestrogenic flavonoids (OD 360 nm); assay type: physicochemical
Description: Retinol was dissolved as a 10% solution in aqueous ethanol (1:1 water:ethanol). This solution was diluted to 0.001% approximately 30 μM). This solution gave an OD of about 0.35 absorption unit at 360 nm in a 96 well plate spectrophotometer.
Aqueous ethanolic stock solutions of the genistein, daidzein were prepared as 0.1%, 0.01% or 0.001%. To 200 μl of 0.001% retinol solution in a 96 well plate was added 20 μl of the flavonoid (i.e. 1-10 dilution) giving a final flavonoid concentration of 0.01, 0.001 and 0.0001%. The plates were mixed and an initial OD reading was taken at 360 nm. The plates were incubated at room temperature in the dark for up to 2 days and subsequent readings were taken at 8, 24 and 48 hours. The OD readings at these time points were normalized to the 0 time point reading. The retinol stability was expressed as % of retinol (OD reading) at 0 time. The data is shown in example 5.
Example 5: The following tables show the effect of genistein and daidzein on destabilizing retinol. The experiment was done as described in methods section. The OD readings from duplicate measurements were averaged and given here.

TGase I = test: Transglutaminase (TGase I ELISA) assay in cultured keratinocytes; assay type: cell-based; conditions: for % Inhibition Overall TG (−ROH/RE): added effect of booster+retinol induced TGase inhibition over retinol alone
[2] = Retinol stability in the presence of boosters (OD 360 nm); assay type: physicochemical; conditions: booster approximately 0.1%, 60 hours at room temperature in the dark, approx. 50% aqueous ethanol
Description: Retinol (50% in tween 80) was dissolved in approximately 50% aqueous ethanol to provide a solution giving an OD at 360 nm of approximately 0.6 when measured in a 200 μl volume in a 96 well plate using a standard 96 well spectrophotometer.
Booster molecules were added at approximately 0.1% concentration and the OD 360 measured as above immediately and after 60 hours at room temperature in the dark. A correction was applied to the OD after 60 hours (divide by 0.85) to account for increased concentration of the retinol due to evaporation of solvent from the plate.

LRAT = molecular target: T2, LRAT (Bos taurus, UniProt Q9BGL2); test: Assay for LRAT activity, RPE microsomes; assay type: biochemical, bovine
T2 construct: followed by approximately 15 μg of RPE microsomal protein; tissue W. L. Lawson Co., Lincoln, Nebr; host or cells: bovine retinal pigment epithelium microsomes
T2 sequence (Q9BGL2 1-230): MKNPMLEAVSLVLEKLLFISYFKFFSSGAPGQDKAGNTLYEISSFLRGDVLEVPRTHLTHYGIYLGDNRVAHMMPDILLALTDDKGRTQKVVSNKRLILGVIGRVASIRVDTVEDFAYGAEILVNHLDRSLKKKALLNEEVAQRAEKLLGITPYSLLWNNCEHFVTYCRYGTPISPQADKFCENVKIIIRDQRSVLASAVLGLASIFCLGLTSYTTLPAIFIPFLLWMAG

Retinol Dehydrogenase = test: Assay for Retinol Dehydrogenase Activity, liver microsomes; assay type: biochemical, rat; conditions: test compound final 100 μM (method)
Description: 2.2 Isolation of rat liver microsomes (modified from R. Martini & M. Murray, “Participation of P450 3A Enzymes in Rat Hepatic Microsomal Renitoic Acid 4-Hydroxylation”, Archives Biochem. Biophys. 303, 57-66 (1993)).
The resulting homogenate was successively centrifuged for 30 min. at 10,000 g, 30 min. at 20,000 g, and 15 min. at 30,000 g, and the resulting supernatant was ultracentrifuged for 80 min. at 105,000 g. […] Protein concentrations were determined as described above.
2.4 Assay for Retinol Dehydrogenase Activity (To identify B2)
The following stock solutions were prepared:
50 mM KH2PO4, pH 7.4 buffer, sterile filtered.
10 mM all trans Retinol (Sigma R7632) in DMSO.
200 mM Nicotinamide adenine dinucleotide phosphate, sodium salt (NADP) (Sigma N0505) in sterile water.
40 mM test compound in appropriate solvent (water, buffer, ethanol, chloroform or DMSO).
1:10 dilution of rat liver Microsomes in 50 mM KH2PO4, pH 7.4 buffer (4 ug/ul).
In a two-dram glass vial with screw cap, add the following in order:
Buffer to give a final volume of 400 μl […]
Aliquots of 60 μL were injected immediately and analyzed for retinoid content.
The chromatography instrumentation consisted of a Waters 600 gradient controller/pump, a Waters 996 Photodiode Array detector and a Waters 474 Scanning Fluorescence detector. […] The eluate was monitored for absorbance at 325 nm and fluorescence at 325 ex/480 em. […]

Molecule: CCCCCCC(O)CCCCCCCCCCC(=O)O (stereo not drawn) [12-Hydroxystearic Acid]
% Inhibition CRABPII (CRABPII): >50%

% Inhibition Retinal Reductase (Retinal Reductase): 26% +/− 2
Molecule: CC1(C)[C@@H](OC(=O)CCC(=O)O)CC[C@]2(C)[C@H]3C(=O)C=C4[C@@H]5C[C@@](C)(C(=O)O)CC[C@]5(C)CC[C@@]4(C)[C@]3(C)CC[C@@H]12 [Carbenoxolone, reference compound]

Retinol stability, % of retinol (OD reading) at 0 time ([1]; 8 h, 0.0001 %): 82%
Retinol stability, % of retinol (OD reading) at 0 time ([1]; 24 h, 0.0001 %): 78%
Retinol stability, % of retinol (OD reading) at 0 time ([1]; 48 h, 0.0001 %): 76%
Molecule: O=c1c(-c2ccc(O)cc2)coc2cc(O)ccc12 [Daidzein]
CRABP-II production (CRABP-II): 1.49+/−0.66
% as Control (CRABP-II): 513+/−227%

% Inhibition Overall TG (−ROH/RE) (TGase I): 22%
FOLD INCREASE IN RATE OF RETINOL LOSS [2]: 1.4 fold
Molecule: CN1CCN(C)C1=O [Dimethyl Imidazolidinone]

Molecule: O=c1c(-c2ccc(O)cc2)coc2cc(O)cc(O)c12 [Genistein]
stimulation of CRABP-II (CRABP-II; 1 μM alone): stimulated CRABP-II significantly
CRABP-II production (CRABP-II): 1.9+/−0.71
% as Control (CRABP-II): 655+/−247%
effect of flavonoid on instability of retinol ([1]; up to 48 hours): marked increases in the instability of retinol

IC50 (TGase I; Keratinocyte, booster in combination with a constant retinol concentration of 10^−7M, read-out: Overall TG (IC 50)): 8.64 µM
FOLD INCREASE IN RATE OF RETINOL LOSS [2]: 1.6 fold
Molecule: CC1(C)[C@@H](O)CC[C@]2(C)[C@H]3C(=O)C=C4[C@@H]5C[C@@](C)(C(=O)O)CC[C@]5(C)CC[C@@]4(C)[C@]3(C)CC[C@@H]12 [Glycyrretinic Acid]

% Inhibition Retinal Reductase (Retinal Reductase): 62% +/− 2
FOLD INCREASE IN RATE OF RETINOL LOSS [2]: 3.4 fold
Molecule: CCCCC/C=C\C/C=C\CCCCCCCC(=O)O [Linoleic Acid]

% Inhibition Overall TG (−ROH/RE) (TGase I): 59%
% Inhibition LRAT (10 μm) (LRAT; 10 μm compound): 11% +/− 9
% Inhibition LRAT (100 μm) (LRAT; 100 μm compound): 51% +/− 15
FOLD INCREASE IN RATE OF RETINOL LOSS [2]: 3.0 fold
Molecule: CCCCC/C=C\C/C=C\CCCCCCCC(=O)N(CCO)CCO [Linoleoyl Diethanolamide]

% Inhibition Retinal Reductase (Retinal Reductase): 26%
Molecule: CCCCCCCCCCCCCC(=O)O [Myristic Acid]

retinol degraded ([1]; 8 h, 0.001 %): 8%
Retinol stability, % of retinol (OD reading) at 0 time ([1]; 24 h, 0.001 %): 86%
retinol degraded ([1]; 24 h, 0.001 %): 14%
Retinol stability, % of retinol (OD reading) at 0 time ([1]; 48 h, 0.001 %): 81%
retinol degraded ([1]; 48 h, 0.001 %): 19%
Molecule: CC1=C(/C=C/C(C)=C/C=C/C(C)=C/CO)C(C)(C)CCC1 [Retinol]

% Inhibition Retinal Reductase (Retinal Reductase): 6%
Molecule: COc1cc(C=O)ccc1O [Vanillin]

% Increase Retinol Dehydrogenase (Retinol Dehydrogenase): 21% increase
Molecule: Phosphatidyl Choline

% Increase Retinol Dehydrogenase (Retinol Dehydrogenase): 26% increase
Molecule: Sphingomyelin
